Measured values taken from patent US20190029928A1, “Fibrous Structures Comprising Malodor Reduction Compositions” (The Procter & Gamble Company, priority 2017, published 2019).
Several values for one entry are separate records, joined by “and”; a condition that tells them apart may be missing. Equal values may be shown once. Read-outs that look alike come from different tables or passages of the source.

Text: The first step in the method for assigning a BI to a test sample material on the BI reference scale is to create the BI reference swatches. […] Fabric swatches for this test are white knit polycotton (4 inch×4 inch) swatches from EMC ordered as PC 50/50. The supplier is instructed to strip the swatches first, stripping involves washing twice with a fragrance-free detergent and rinsing three times.
Making the BI Reference Swatches
The BI scale contains one clean swatch with no malodor applied. […] These solutions are pipetted to the middle of the swatches. […] After drying for 30 minutes in a vented hood, the swatches are wrapped in aluminum foil to prevent odor contamination to the treated swatch. A clean untreated swatch is also included as the lowest anchor point of reference for malodor strength on the BI scale. The BI reference scale swatches should be used within 0.5 to 12 hours and discarded after 12 hours. The swatches are used as scale anchor points when graders evaluate a test sample(s) and are assigned a Blocker Index (BI) as show in Table 11 below.
The perfumer/expert grader is asked to rank order swatches according to a scale between 0 and 3.

Which “BI rank Ave” value (2 μL 0.08% isovaleric acid, all graders (Table 11)) does the source give for `CC(C)CC(=O)O` [isovaleric acid] here?
Its value is 1.0.

What about the “BI rank by individual expert grader” value (stripped swatch with 2 μL 0.08% isovaleric acid) of the same compound?
Its value is 0.5 and 2.0 and 1.0.

And the “BI rank by individual expert grader” value (stripped swatch with 5 μL 0.08% isovaleric acid)?
The value was 2.0 and 2.5.

What about the “BI rank by individual expert grader” value (stripped swatch with 20 μL 0.08% isovaleric acid) of the same compound?
The value was 3.0 and 2.5.
